Data as given in patent publication US7541358B2, “1-aryl-or 1-alkylsulfonylbenzazole derivatives as 5-hydroxytryptamine-6 ligands” (Wyeth, priority 2001, dated 2009).

Tests used:
[1] = target: T1, human cloned 5-HT6 receptors (Homo sapiens, UniProt P50406); assay: 5-HT6 binding affinity ([3H]-LSD displacement, membranes of Hela cells expressing human cloned 5-HT6 receptors); conditions: [3H]-LSD 3.0 nM, Hela cell membranes; for inhibition at 1 µM / % inhibition at 1 μM concentration: 1 μM test compound; for inhibition at 1 µM: read-out: % inhibition at 1 μM concentration; for Ki: 120 min at room temperature
T1 construct: expressed in transfected cells; host or cells: Hela cells
T1 sequence (P50406 whole entry): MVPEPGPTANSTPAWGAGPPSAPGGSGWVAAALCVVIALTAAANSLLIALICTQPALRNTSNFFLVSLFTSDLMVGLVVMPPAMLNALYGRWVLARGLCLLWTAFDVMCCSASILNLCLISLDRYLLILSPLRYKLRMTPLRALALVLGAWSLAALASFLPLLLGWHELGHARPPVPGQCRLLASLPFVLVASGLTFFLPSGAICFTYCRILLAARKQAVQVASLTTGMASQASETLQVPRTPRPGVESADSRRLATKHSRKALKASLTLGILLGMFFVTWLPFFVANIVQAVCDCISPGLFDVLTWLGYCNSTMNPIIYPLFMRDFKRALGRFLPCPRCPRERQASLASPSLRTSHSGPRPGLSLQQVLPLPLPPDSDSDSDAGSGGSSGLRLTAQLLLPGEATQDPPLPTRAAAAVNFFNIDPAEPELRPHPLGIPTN
Experimental: The affinity of test compounds for the serotonin 5-HT6 receptor is evaluated in the following manner. Cultured Hela cells expressing human cloned 5-HT6 receptors are harvested and centrifuged at low speed (1,000×g) for 10.0 min to remove the culture media. The harvested cells are suspended in half volume of fresh physiological phosphate buffered saline solution and recentrifuged at the same speed. This operation is repeated. The collected cells are then homogenized in ten volumes of 50 mM Tris.HCl (pH 7.4) and 0.5 mM EDTA. The homogenate is centrifuged at 40,000×g for 30.0 min and the precipitate is collected. The obtained pellet is resuspended in 10 volumes of Tris.HCl buffer and recentrifuged at the same speed. The final pellet is suspended in a small volume of Tris.HCl buffer and the tissue protein content is determined in aliquots of 10-25 μl volumes. Bovine Serum Albumin is used as the standard in the protein determination according to the method described in Lowry et al., J. Biol. Chem., 193:265 (1951). The volume of the suspended cell membranes is adjusted to give a tissue protein concentration of 1.0 mg/ml of suspension. The prepared membrane suspension (10 times concentrated) is aliquoted in 1.0 ml volumes and stored at −70° C. until used in subsequent binding experiments.
Binding experiments are performed in a 96 well microtiter plate format, in a total volume of 200 μl. […] The test compounds are added in 20.0 μl volume.
The reaction is allowed to proceed in the dark for 120 min at room temperature, at which time, the bound ligand-receptor complex is filtered off on a 96 well unifilter with a Packard Filtermate® 196Harvester. The bound complex caught on the filter disk is allowed to air dry and the radioactivity is measured in a Packard TopCount® equipped with six photomultiplier detectors, after the addition of 40.0 μl Microscint®-20 scintillant to each shallow well. The unifilter plate is heat-sealed and counted in a PackardTopCount® with a tritium efficiency of 31.0%.
Binding in the presence of varying concentrations of test compound is expressed as a percentage of specific binding in the absence of test compound. The results are plotted a log % bound versus log concentration of test compound. […] A linear regression line of data points is plotted, from which the IC50 value is determined and the Ki value is determined based upon the following equation: Ki=IC50/(1+L/KD) where L is the concentration of the radioactive ligand used and KD is the dissociation constant of the ligand for the receptor, both expressed in nM.

inhibition at 1 µM [1]	melting point	Ki [1]	Compound	% inhibition at 1 μM concentration [1]
51%	222 to 224 °C		O=S(=O)(c1ccc(Cl)s1)n1ccc2cc(OCCN3CCCCC3)ccc21 [Example 11, 1-[(5-chlorothien-2-yl)sulfonyl]-5-[2-(piperidin-1-yl)ethoxy]-1H-indole]	
65%	222 to 224 °C		O=S(=O)(c1cc(Cl)c(Cl)s1)n1ccc2cc(OCCN3CCCCC3)ccc21 [Example 12, 1-[(4,5-dichlorothien-2-yl)sulfonyl]-5-[2-(piperidin-1-yl)ethoxy]-1H-indole]	
	60 °C	22 nM	O=S(=O)(c1c(Cl)nc2sccn12)n1ccc2cc(OCCN3CCCCC3)ccc21 [Example 13, 1-[(6-chloroimidazo[2,1-b][1,3]thiazol-5-yl)sulfonyl]-5-[2-(piperidin-1-yl)ethoxy]-1H-indole]	
65%			Cc1c(S(=O)(=O)n2ccc3cc(OCCN4CCCCC4)ccc32)sc2ccc(Cl)cc12 [Example 14, 1-[(5-chloro-3-methyl-1-benzothien-2-yl)sulfonyl]-5-[2-(piperidin-1-yl)ethoxy]-1H-indole]	
	217 to 219 °C	71 nM	Cc1c(S(=O)(=O)n2ccc3c(OCCN4CCCCC4)cccc32)sc2ccc(Cl)cc12 [Example 15, 1-[(5-chloro-3-methyl-1-benzothien-2-yl)sulfonyl]-4-[2-(piperidin-1-yl)ethoxy]-1H-indole]	
			O=[N+]([O-])c1ccc(S(=O)(=O)n2ncc3c(OCCN4CCCCC4)cccc32)cc1 [Example 20, 1-[(4-nitrophenyl)sulfonyl]-4-[2-(l-piperidinyl)ethoxy]1H-indazole]	76% @ 1 μM*
	88 to 90 °C	2 nM	O=S(=O)(c1c(Cl)nc2sccn12)n1ncc2c(OCCN3CCCCC3)cccc21 [Example 22, 1-[(6-chloroimidazo[2,1-b][1,3]thiazol-5-yl)sulfonyl]-4-[2-(piperidin-1-yl)ethoxy]-1H-indazole]	
	214 to 216 °C	18 nM	O=S(=O)(c1cc(Cl)c(Cl)s1)n1ncc2c(OCCN3CCCCC3)cccc21 [Example 23, 1-[(4,5-dichlorothien-2-yl)sulfonyl]-4-[2-(piperidin-1-yl)ethoxy]-1H-indazole]	
	187 to 189 °C	12 nM	O=S(=O)(c1ccc(Cl)s1)n1ncc2c(OCCN3CCCCC3)cccc21 [Example 24, 1-[(5-chlorothien-2-yl)sulfonyl]-4-[2-(piperidin-1-yl)ethoxy]-1H-indazole]	
	172 to 175 °C	8 nM	O=S(=O)(c1cccs1)n1ncc2c(OCCN3CCCCC3)cccc21 [Example 25, 4-[2-(piperidin-1-yl)ethoxy]-1-(thien-2-ylsulfonyl)-1H-indazole]	
	216 to 218 °C	53 nM	Cc1c(S(=O)(=O)n2ncc3c(OCCN4CCCCC4)cccc32)sc2ccc(Cl)cc12 [Example 26, 1-[(5-chloro-3-methyl-1-benzothien-2-yl)sulfonyl]-4-[2-(piperidin-1-yl)ethoxy]-1H-indazole]	
			N,N-Bis(3-methoxybenzyl)-N-(2-{[1-(phenylsulfonyl)-1H-indol-4-yl]oxy}ethylamine [Example 7a]	94% @ 1 μM*
			N-(3-methoxybenzyl)-N-(2-{[1-(phenylsulfonyl)-1H-indol-4-yl]oxy}ethylamine hydrochloride [Example 7b]	95% @ 1 μM*
